This test can be described thus: Inhibition of gp120 in HIV-1 subtype B #11578 harboring pseudotyped Env pWEAUd15.410.5017 infected in human TZM-bl cells assessed as reduction in viral infection pretreated for 30 mins before viral infection and measured after 3 days by luciferase based single cycle infection assay.
On to `Cc1nc([C@H](CN)NC(=O)c2cc3ccccc3[nH]2)sc1CO`, for which the IC50 was more than 60 µM. With `Cc1nc([C@@H](CN)NC(=O)c2cc3ccccc3[nH]2)sc1CO`, the concentration for half-maximal inhibition (IC50) was more than 60 µM. With `Cc1nc([C@@H](CCN)NC(=O)C(=O)Nc2ccc(Cl)cc2)sc1CO` the figure was more than 15 µM; with `Cc1nc([C@@H](CN)NC(=O)C(=O)Nc2ccc(Cl)cc2)sc1CO`, more than 27 µM; with `Cc1nc([C@H](CN)NC(=O)C(=O)Nc2ccc(Cl)cc2)sc1CO`, more than 27 µM.

Consider `Cc1nc([C@@H](CN)NC(=O)c2cc3cc(Cl)ccc3[nH]2)sc1CO`, for which the IC50 is more than 40 µM. With `NC[C@H](NC(=O)c1ccc(OCC2CCCCC2)cc1)c1ncc(CO)s1` the figure was more than 15 µM; with `NC[C@H](NC(=O)C(=O)NCc1ccc(Cl)c(F)c1)c1ncc(CO)s1`, more than 15 µM; with `NC[C@@H](NC(=O)CNCc1ccc(Cl)cc1)c1ncc(CO)s1`, more than 23.4 µM. To `NC[C@H](NC(=O)CNCc1ccc(Cl)cc1)c1ncc(CO)s1` belongs more than 23.4 µM. To `NC[C@@H](NC(=O)c1ccc(OCC2CCCCC2)cc1)c1ncc(CO)s1` belongs more than 15 µM; to `NCCNC(=O)c1ccc(-c2ccc(Cl)c(F)c2)[nH]1`, 3.8 µM. Regarding `NC[C@@H](NC(=O)C(=O)NCc1ccc(Cl)c(F)c1)c1ncc(CO)s1`, the IC50 is more than 15 µM. With `Cc1nc([C@H](CCN)NC(=O)C(=O)Nc2ccc(Cl)cc2)sc1CO` the figure was more than 15 µM.

For `NC[C@H](NC(=O)c1ccc(C2CCCCC2)[nH]1)c1ncc(CO)s1`, the IC50 is more than 28 µM. To `Cc1nc([C@H](CN)NC(=O)c2cc3cc(Cl)ccc3[nH]2)sc1CO` belongs more than 40 µM; to `Cc1nc([C@H](CN)NC(=O)NC(=O)c2ccc(Cl)cc2)sc1CO`, more than 54 µM. To `Cc1nc([C@@H](CN)NC(=O)NC(=O)c2ccc(Cl)cc2)sc1CO` belongs more than 54 µM. To `NC[C@@H](NC(=O)c1ccc(NCC2CCCCC2)cc1)c1ncc(CO)s1` belongs more than 15 µM.

Take `NC[C@@H](NC(=O)c1ccc(C2CCCCC2)[nH]1)c1ncc(CO)s1`: the IC50 was more than 28 µM. For the compound `O=C(N[C@H](CC1CCNCC1)c1nc(CO)cs1)c1ccc(-c2ccc(C(F)(F)F)cc2)[nH]1`, the concentration for half-maximal inhibition (IC50) turned out to be 12.4 µM. With `NC[C@H](NC(=O)c1ccc(-c2ccc(Cl)cc2)[nH]1)c1nccs1` the figure was 0.8 µM; with `CC1(C)CC(NC(=O)c2ccc(-c3ccc(Cl)c(F)c3)[nH]2)CC(C)(C)N1`, 6.2 µM; with `NC[C@@H](NC(=O)Cc1ccc(OCC2CCCCC2)cc1)c1ncc(CO)s1`, more than 25 µM.

In the case of `O=C(N[C@@H](CC1CCNCC1)c1nc(CO)cs1)c1ccc(-c2ccc(C(F)(F)F)cc2)[nH]1`, the IC50 is 8.5 µM. With `NC[C@H](NC(=O)Cc1ccc(OCC2CCCCC2)cc1)c1ncc(CO)s1` the figure was more than 25 µM; with `O=C(NC1(c2nc(CO)cs2)CCNCC1)c1ccc(-c2ccc(C(F)(F)F)cc2)[nH]1`, 11.4 µM; with `O=C(NC1CCNCC1)c1ccc(-c2ccc(Cl)c(F)c2)[nH]1`, 6.6 µM. With `NC[C@H](NC(=O)c1ccc(NCC2CCCCC2)cc1)c1ncc(CO)s1` the figure was more than 15 µM; with `NC[C@@H](NC(=O)c1ccc(-c2ccc(Cl)cc2)[nH]1)c1nccs1`, 3.3 µM.

Source of the values: BindingDB's records for doi:10.1016/j.ejmech.2021.113681 (Moscow State University, 2021).
